Source: ChEMBL document CHEMBL1201862, “PubChem BioAssay data set” (2004)
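Protocol summary: plate cells (96-well), add compound at 5 concentrations, incubate 48 h, interpolate endpoints linearly. The concentration for 50% growth inhibition is given as GI50.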 Activity calls are given as the source filed them. Cut-off read from the data, not from the text of the source: active = GI50 up to about 1.1 µM and inactive = higher.

Tests used:
Experiment in all cases: NCI tumour cell line growth inhibition, 48 h
786-0 = tested on: 786-0
A498 = tested on: A498
A549 = tested on: A549
ACHN = tested on: ACHN
CAKI-1 = tested on: CAKI-1
CCRF-CEM = tested on: CCRF-CEM
COLO 205 = tested on: COLO 205
DLD-1 = tested on: DLD-1
DMS-114 = tested on: DMS-114
DMS-273 = tested on: DMS-273
EKVX = tested on: EKVX
HCC 2998 = tested on: HCC 2998
HCT-116 = tested on: HCT-116
HCT-15 = tested on: HCT-15
HL-60 = tested on: HL-60
HOP-18 = tested on: HOP-18
HOP-62 = tested on: HOP-62
HOP-92 = tested on: HOP-92
HT-29 = tested on: HT-29
IGROV-1 = tested on: IGROV-1
K562 = tested on: K562
KM-20L2 = tested on: KM-20L2
KM12 = tested on: KM12
LOX IMVI = tested on: LOX IMVI
LXFL 529 = tested on: LXFL 529
M14 = tested on: M14
M19-MEL = tested on: M19-MEL
MOLT-4 = tested on: MOLT-4
Malme-3M = tested on: Malme-3M
NCI-H226 = tested on: NCI-H226
NCI-H23 = tested on: NCI-H23
NCI-H460 = tested on: NCI-H460
NCI-H522 = tested on: NCI-H522
OVCAR-3 = tested on: OVCAR-3
OVCAR-4 = tested on: OVCAR-4
OVCAR-5 = tested on: OVCAR-5
OVCAR-8 = tested on: OVCAR-8
RPMI-8226 = tested on: RPMI-8226
RXF 393 = tested on: RXF 393
RXF 631 = tested on: RXF 631
SF-268 = tested on: SF-268
SF-295 = tested on: SF-295
SF-539 = tested on: SF-539
SK-MEL-28 = tested on: SK-MEL-28
SK-MEL-2 = tested on: SK-MEL-2
SK-MEL-5 = tested on: SK-MEL-5
SK-OV-3 = tested on: SK-OV-3
SN12C = tested on: SN12C
SNB-19 = tested on: SNB-19
SNB-75 = tested on: SNB-75
SNB-78 = tested on: SNB-78
SR = tested on: SR
TK-10 = tested on: TK-10
U-251 = tested on: U-251
UACC-257 = tested on: UACC-257
UACC-62 = tested on: UACC-62
UO-31 = tested on: UO-31

COC(=O)N/N=C(\C)c1sc(-c2nc(C)c(/C(C)=N/NC(=O)OC)s2)nc1C
GI50 (786-0): > 100 µM (inactive)
GI50 (A498): > 100 µM (inactive)
GI50 (A549): > 100 µM (inactive)
GI50 (ACHN): > 100 µM (inactive)
GI50 (CAKI-1): > 100 µM (inactive)
GI50 (CCRF-CEM): 79.6 µM (inactive)
GI50 (COLO 205): > 100 µM (inactive)
GI50 (DLD-1): > 100 µM (inactive)
GI50 (DMS-114): 42.2 µM (inactive)
GI50 (DMS-273): 95.9 µM (inactive)
GI50 (EKVX): > 100 µM (inactive)
GI50 (HCC 2998): > 100 µM (inactive)
GI50 (HCT-116): > 100 µM (inactive)
GI50 (HCT-15): > 100 µM
GI50 (HL-60): 39.1 µM (inactive)
GI50 (HOP-18): > 100 µM (inactive)
GI50 (HOP-62): > 100 µM (inactive)
GI50 (HOP-92): > 100 µM (inactive)
GI50 (HT-29): > 100 µM (inactive)
GI50 (IGROV-1): > 100 µM (inactive)
GI50 (K562): > 100 µM (inactive)
GI50 (KM-20L2): > 100 µM (inactive)
GI50 (KM12): > 100 µM (inactive)
GI50 (LOX IMVI): 64.1 µM (inactive)
GI50 (LXFL 529): > 100 µM (inactive)
GI50 (M14): > 100 µM (inactive)
GI50 (M19-MEL): > 100 µM (inactive)
GI50 (MOLT-4): > 100 µM (inactive)
GI50 (Malme-3M): > 100 µM (inactive)
GI50 (NCI-H226): > 100 µM (inactive)
GI50 (NCI-H23): > 100 µM (inactive)
GI50 (NCI-H460): > 100 µM (inactive)
GI50 (NCI-H522): 41.7 µM (inactive)
GI50 (OVCAR-3): > 100 µM (inactive)
GI50 (OVCAR-4): > 100 µM (inactive)
GI50 (OVCAR-5): > 100 µM (inactive)
GI50 (OVCAR-8): > 100 µM (inactive)
GI50 (RPMI-8226): > 100 µM (inactive)
GI50 (RXF 393): > 100 µM (inactive)
GI50 (RXF 631): > 100 µM (inactive)
GI50 (SF-268): > 100 µM (inactive)
GI50 (SF-295): > 100 µM (inactive)
GI50 (SF-539): > 100 µM (inactive)
GI50 (SK-MEL-28): > 100 µM (inactive)
GI50 (SK-MEL-2): > 100 µM (inactive)
GI50 (SK-MEL-5): > 100 µM (inactive)
GI50 (SK-OV-3): > 100 µM (inactive)
GI50 (SN12C): > 100 µM (inactive)
GI50 (SNB-19): > 100 µM (inactive)
GI50 (SNB-75): > 100 µM (inactive)
GI50 (SNB-78): 62.7 µM (inactive)
GI50 (SR): 20.7 µM (inactive)
GI50 (TK-10): > 100 µM (inactive)
GI50 (U-251): > 100 µM (inactive)
GI50 (UACC-257): > 100 µM (inactive)
GI50 (UACC-62): > 100 µM (inactive)
GI50 (UO-31): > 100 µM (inactive)
